Ends that are not written are not given here.
Tests used:
[1] = target: T1, MLL4PHD2/3 D257K/D285K (Homo sapiens, UniProt O14686, D257K/D285K); test: NMR titration binding, D257K/D285K MLL4PHD2/3; conditions: 1H,15N HSQC titration, 0.1 mM protein, 20 mM Tris pH 6.8, 150 mM NaCl, 298 K
T1 construct: MLL4 (aa 227-324); GST (N, cleaved yes); made in house; host or cells: E. coli BL21-CodonPlus
Description: (§1) All constructs were expressed in BL21-CodonPlus competent cells.
(§2) For NMR titration experiments, ^1H,^15N HSQC spectra of 0.1 mM uniformly ^15N-labeled WT or mutated MLL4PHD2/3, MLL3PHD2/3 or MLL3PHD4 were recorded while WT or mutated ASXL2 (aa 650-670, 650-664, 656-670) and ASXL3 (aa 1047-1067) peptides (synthesized by SynPeptide) or MLL3PHD2/3 were added stepwise. All experiments were carried out in 20 mM Tris buffer (pH 6.8), 150 mM NaCl, and 3 mM DTT, containing 7% D2O. The dissociation constants (Kds) were determined by a nonlinear least-squares analysis in GraphPad Prism using the equation:1 △δ=△δmaxL+P+Kd−L+P+Kd^2−4PL/2P where [L] is concentration of the peptide, [P] is concentration of the protein, Δδ is the observed chemical shift change, and Δδmax is the normalized chemical shift change at saturation. Normalized chemical shift changes were calculated using the equation Δδ=△δH^2+△sn/5^2 (2), where Δδ is the change in chemical shift in parts per million (ppm).

[2] = target: T2, MLL4PHD2/3 K274E (Homo sapiens, UniProt O14686, K274E); test: NMR titration binding, K274E MLL4PHD2/3; conditions: 1H,15N HSQC titration, 0.1 mM protein, 20 mM Tris pH 6.8, 150 mM NaCl, 298 K
T2 construct: MLL4 (aa 227-324); GST (N, cleaved yes); made in house; host or cells: E. coli BL21-CodonPlus
T2 sequence (O14686 227-324 K274E): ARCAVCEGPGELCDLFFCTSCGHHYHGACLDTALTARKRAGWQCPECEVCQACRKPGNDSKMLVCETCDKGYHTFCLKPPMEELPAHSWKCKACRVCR
Description: as §1, §2

[3] = target: T3, MLL4PHD2/3 D285K (Homo sapiens, UniProt O14686, D285K); test: NMR titration binding, D285K MLL4PHD2/3; conditions: 1H,15N HSQC titration, 0.1 mM protein, 20 mM Tris pH 6.8, 150 mM NaCl, 3 mM DTT, 7% D2O, 298 K, mean ± SD, n = 3
T3 construct: MLL4 (aa 227-324); GST (N, cleaved yes); made in house; host or cells: E. coli BL21-CodonPlus
T3 sequence (O14686 227-324 D285K): as the sequence (O14686 227-324 K274E) above, with E48K, D59K counted along it
Description: as §1
Normalized chemical shift changes were calculated using the equation Δδ=△δH^2+△sn/5^2 (2), where Δδ is the change in chemical shift in parts per million (ppm).

[4] = target: T4, MLL3PHD2/3 D372K/D400K (Homo sapiens, UniProt Q8NEZ4, D372K/D400K); test: NMR titration binding, D372K/D400K MLL3PHD2/3; conditions: 1H,15N HSQC titration, 0.1 mM protein, 20 mM Tris pH 6.8, 150 mM NaCl, 298 K
T4 construct: human MLL3 (aa 342-439); GST (N, cleaved yes); made in house; host or cells: E. coli BL21-CodonPlus
T4 sequence (Q8NEZ4 342-439 D372K/D400K): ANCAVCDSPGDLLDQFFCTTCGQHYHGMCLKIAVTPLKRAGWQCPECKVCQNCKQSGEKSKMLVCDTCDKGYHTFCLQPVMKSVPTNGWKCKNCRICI
Description: as §1, §2

[5] = target: T5, MLL4PHD2/3 V290K (Homo sapiens, UniProt O14686, V290K); test: NMR titration binding, V290K MLL4PHD2/3; conditions: 1H,15N HSQC titration, 0.1 mM protein, 20 mM Tris pH 6.8, 150 mM NaCl, 298 K
T5 construct: MLL4 (aa 227-324); GST (N, cleaved yes); made in house; host or cells: E. coli BL21-CodonPlus
T5 sequence (O14686 227-324 V290K): as the sequence (O14686 227-324 K274E) above, with E48K, V64K counted along it
Description: as §1, §2

[6] = target: T6, MLL4PHD2/3 L256K (Homo sapiens, UniProt O14686, L256K); test: NMR titration binding, L256K MLL4PHD2/3; conditions: 1H,15N HSQC, 0.1 mM protein, 20 mM Tris pH 6.8, 298 K
T6 construct: MLL4 (aa 227-324); GST (N, cleaved yes); made in house; host or cells: E. coli BL21-CodonPlus
T6 sequence (O14686 227-324 L256K): as the sequence (O14686 227-324 K274E) above, with L30K, E48K counted along it
Description: as §1, §2

T1 sequence (O14686 227-324 D257K/D285K): as the sequence (O14686 227-324 K274E) above, with D31K, E48K, D59K counted along it

Sequence: NRTGARTLADIKAKAQLVKAQ [ASXL2 650-670]
- Kd [1]: no binding
- Kd [2]: no binding
- Kd [3]: 1700 µM
- Kd [4]: no binding
- Kd [5]: no binding
- Kd [6]: unfolded
